Test results reported in ChEMBL document CHEMBL1125637, “Benzocycloalkyl amines as novel C-termini for HIV protease inhibitors” (J Med Chem, 1991).

The molecules below were run against Human immunodeficiency virus type 1 protease (Human immunodeficiency virus 1, UniProt Q72874) (assay: Inhibition of HIV protease).
Assay type: functional
`CC(C)(C)OC(=O)N[C@@H](Cc1ccccc1)[C@@H](O)C[C@@H](Cc1ccccc1)C(=O)N[C@@H]1CCc2ccccc21` was tested, and the IC50 was 19 nM. With `CC(C)(C)OC(=O)N[C@@H](Cc1ccccc1)[C@@H](O)C[C@@H](Cc1ccccc1)C(=O)NCCc1ccccc1` the IC50 was 2800 nM. Work on `CC(C)(C)OC(=O)N[C@@H](Cc1ccccc1)[C@@H](O)C[C@@H](Cc1ccccc1)C(=O)NC1c2ccccc2[C@@H](N)[C@H]1O` (some centres not stated) yielded an IC50 of 1.9 nM. For `CC(C)(C)OC(=O)N[C@@H](Cc1ccccc1)[C@@H](O)C[C@@H](Cc1ccccc1)C(=O)N[C@H]1c2ccccc2C[C@@H]1O` (stereo in doubt; 10), the IC50 was 229 nM. In the case of `CC(C)(C)OC(=O)N[C@@H](Cc1ccccc1)[C@@H](O)C[C@@H](Cc1ccccc1)C(=O)NC1c2ccccc2C[C@H]1C(N)=O` (some centres not stated), the IC50 is reported as 1.8 nM. `CC(C)(C)OC(=O)N[C@@H](Cc1ccccc1)[C@@H](O)C[C@@H](Cc1ccccc1)C(=O)NC1Cc2ccccc2C1` was tested, and the IC50 was 130 nM. `CC(C)(C)OC(=O)N[C@@H](Cc1ccccc1)[C@@H](O)C[C@@H](Cc1ccccc1)C(=O)N[C@H]1c2ccccc2C[C@H]1O` showed an IC50 of 0.3 nM. In the case of `CC(C)(C)OC(=O)N[C@@H](Cc1ccccc1)[C@@H](O)C[C@@H](Cc1ccccc1)C(=O)NC1CCCc2ccccc21` (some centres not stated), the IC50 is reported as 16 nM. With `CC(C)(C)OC(=O)N[C@@H](Cc1ccccc1)[C@@H](O)C[C@@H](Cc1ccccc1)C(=O)NC1Cc2ccccc21` (some centres not stated) the IC50 was 22 nM. With `CC(C)(C)OC(=O)N[C@@H](Cc1ccccc1)[C@@H](O)C[C@@H](Cc1ccccc1)C(=O)N[C@H]1CCc2ccccc21` the IC50 was 21 nM. For `CC(C)(C)OC(=O)N[C@@H](Cc1ccccc1)[C@@H](O)C[C@@H](Cc1ccccc1)C(=O)N[C@H]1c2ccccc2C[C@@H]1O` (stereo in doubt; 8), the IC50 was 259 nM. `CC(C)(C)OC(=O)N[C@@H](Cc1ccccc1)[C@@H](O)C[C@@H](Cc1ccccc1)C(=O)N[C@H]1c2ccccc2[C@@H](O)[C@H]1O` gave an IC50 of 0.1 nM.
